Source: PubChem BioAssay (NCI)
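Interpolation was linear, between the two tested concentrations surrounding the appropriate level; five concentrations were tested over 48 hours in 96-well plates. Here, GI50 denotes the concentration required for 50% inhibition of growth. TGI: total growth inhibition.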 Where a SMILES comes first, the peptide text is derived from it. The star is where a group is joined. Fmoc = O=C(OCC1c2ccccc2-c2ccccc21)*; OBn = c1ccc(CO*)cc1; tBu = CC(C)(C)*

Columns and labels:
Experiment in all cases: NCI tumour cell line growth inhibition, 48 h
[1] = system: A498 renal
[2] = system: CAKI-1 renal
[3] = system: CCRF-CEM leukemia
[4] = system: HCT-15 colon
[5] = system: M14 melanoma
[6] = system: NCI-H226 lung
[7] = system: OVCAR-4 ovarian
[8] = system: RXF 393 renal
[9] = system: U251 CNS
[10] = system: UACC-257 melanoma

| Compound | TGI [1] [µM] | TGI [2] [µM] | TGI [3] [µM] | TGI [4] [µM] | TGI [5] [µM] | TGI [6] [µM] | TGI [7] [µM] | TGI [8] [µM] | TGI [9] [µM] | TGI [10] [µM] | GI50 [1] [µM] | GI50 [2] [µM] | GI50 [3] [µM] | GI50 [4] [µM] | GI50 [5] [µM] | GI50 [6] [µM] | GI50 [7] [µM] | GI50 [8] [µM] | GI50 [9] [µM] | GI50 [10] [µM] |
| --- | --- | --- | --- | --- | --- | --- | --- | --- | --- | --- | --- | --- | --- | --- | --- | --- | --- | --- | --- | --- |
| CCOC(=O)CSc1nc(-c2ccc(Cl)cc2)c(C#N)c(=O)[nH]1 | > 100 | > 100 | 89 | > 100 | > 100 | > 100 | > 100 | > 100 | > 100 | > 100 |  |  |  |  |  |  |  |  |  |  |
| COc1ccc(/C=C2\N=C3N(Cc4ccccc4)C=C(N)N3C2=O)cc1 | > 100 | > 100 | > 100 | > 100 | > 100 | > 100 | > 100 | > 100 | 92.3 | > 100 |  |  |  |  |  |  |  |  |  |  |
| Clc1ccc(C2=CC(c3ccccc3)N3C(=N[C@H]4CCCC[C@@H]43)N2)cc1 (stereo partly specified) | 22.2 | 26.9 | > 100 | 15.5 | 10.5 | 23 | 18.4 | 8.44 | 17.2 | 25.7 |  |  |  |  |  |  |  |  |  |  |
| COc1ccc(C2CC(c3cccc(Nc4ccncc4)c3)=NN2c2ccccc2)cc1 (stereo unspecified) | 9.69 | 3.18 | 11.6 | 3.44 | 3.74 | 8.83 | 3.62 | 3.02 | 3.8 | 4.17 | 1.41 | 1.66 | 3.44 | 1.74 | 1.87 | 2.31 | 1.79 | 1.55 | 1.94 | 2 |
| CCOC(=O)CC1(N)CC2c3ccccc3OC(=O)C2C(=O)N1 (stereo unspecified) | > 100 | > 100 | > 100 | > 100 | > 100 | > 100 | > 100 | > 100 | > 100 | > 100 |  |  |  |  |  |  |  |  |  |  |
| Nc1c(-c2ccccc2)c2ccc([N+](=O)[O-])cc2c(=O)n1-c1cccc(C(=O)O)c1 | > 100 | > 100 | > 100 | > 100 | > 100 | > 100 | > 100 | > 100 | > 100 | > 100 |  |  |  |  |  |  |  |  |  |  |
| COc1cc2c(cc1OCCN1CCN(CCOc3cc4c(cc3OC)C(=O)N3CCC[C@H]3C=N4)CC1)N=C[C@@H]1CCCN1C2=O | > 72.5 | 49.3 | > 100 | > 100 | > 83.6 | 66.2 | > 100 | 56.3 | > 89.7 | > 100 |  |  | 4.49 |  |  |  |  |  |  |  |
| CCOC(=O)CCC(C(=O)OCC)n1nnc2cc(Nc3c(C)[n+]([O-])c4cc(Cl)ccc4[n+]3[O-])ccc21 (stereo unspecified) | > 100 | > 100 | > 100 | > 100 | > 100 | > 100 | > 100 | > 100 | > 100 | > 100 |  |  |  |  |  |  |  |  |  |  |
| CCOC(=O)/C=C(/OCC)[C@@H]1C(C(=O)c2ccc(Cl)cc2)[C@@H]1/C(=C\C(=O)OCC)OCC (stereo partly specified) | > 100 | > 100 | > 100 | > 100 | > 100 | > 100 | > 100 | > 78.5 | > 100 | > 100 |  |  |  |  |  |  |  |  |  |  |
| CCOC(=O)CC1C(C(=O)OCC)=Cn2c([nH]c3cccc4cccc2c43)=C1C(=O)OCC (stereo unspecified) | > 100 | > 100 | > 100 | > 100 | > 100 | > 100 | > 100 | > 100 | > 100 | > 100 |  |  |  |  |  |  |  |  |  |  |
| C[N+](C)([O-])C12CC3CC(CC(C3)C1)C2 | 67.7 | > 100 | > 100 | > 100 | > 100 | > 100 | > 100 | > 100 | > 100 | > 100 |  |  |  |  |  |  |  |  |  |  |
| CC(C)(C)c1cc(C(C)(C)C)c2sc(=O)oc2c1O | 27.3 | 25.3 | > 100 | 25.3 | 31.6 | 36.2 | 27.6 | 26.3 | 27.8 | 20.2 |  |  |  |  |  |  |  |  |  |  |
| CC(OC(C)(C)C)C(NC(=O)OCC1c2ccccc2-c2ccccc21)C(=O)NC(Cc1ccccc1)C(=O)OCc1ccccc1 (stereo unspecified) (Fmoc-Thr(tBu)-Phe-OBn; configuration not given here) | > 100 | > 100 | > 100 | > 100 | > 100 | > 100 | > 100 | > 100 | > 100 | > 100 |  |  |  |  |  |  |  |  |  |  |
| CC(C)(C)OC(=O)N1CCC2(CC1)C(=O)NCN2c1ccccc1 | > 100 | > 100 | > 100 | > 100 | > 100 | > 100 | > 100 | > 100 | > 100 | > 100 |  |  |  |  |  |  |  |  |  |  |
